Laboratory results: publication PMC7934871 (JCI Insight, 2021)
Non-standard residues stand in square brackets, D forms with d. No end group written: not given here. pY = N[C@@H](Cc1ccc(OP(=O)(O)O)cc1)C(=O)O

Legend:
[1] = system: splenic CD8+ T cells; assay: CD8+ T cell activation and ELISA (IFN-γ, IL-2); assay type: cell-based, mouse; conditions: anti-CD3/CD28 activated, 20 ng/mL IL-6, 1 μM peptide, 48 hours, ELISA, n = 4
Experimental: Data are representative of 3 independent experiments (n = 3). […] Data represent 4 independent experiments (n = 4). SD is shown. One-way ANOVA; ****P < 0.001.
CD8^+ T cells were isolated from C57BL/6 mice spleens as described above. A 96-well plate (Cellstar) was precoated with 2 μg/mL anti-CD3 antibody (BioLegend, clone 145-2c11, 100331) at 4°C overnight (BioLegend), and 1–2 × 10^5 cells were seeded into each well, followed by adding 2 μg/mL soluble CD28 (BioLegend, clone 37-51, 102012) and stimulation with 20 ng/mL IL-6. PS-unacet.-STAT3, PS-STAT3-K685R, and PO- or PS-acet.-STAT3 peptides at a concentration of 1 μM were added to the cells. Peptide treatment was repeated on the following day. Control cells were treated with HBSS. After 48 hours’ treatment with peptides at 37°C, supernatants were assessed for IFN-γ and IL-2 production by R&D, Bio-Techne, kits (DY402 and DY406), according to manufacturer’s instruction.

[2] = system: pY705-STAT3; assay: IL-6–induced pY705-STAT3 in splenic CD8+ T cells, Western blotting; assay type: cell-based; conditions: mouse splenic CD8+ T cells
[3] = system: cancer cells; assay: Confocal microscopy of peptide localisation; assay type: cell-based; conditions: 1 μM, 1 hour
Experimental: (§1) Figure 8 PS-Gp130 and PS-MYC blocking peptides efficiently internalize into tumor cells to exert their functions. (A) For 1 hour 1 μM of PS-conjugated MYC (PS-MYC) and Gp130 (PS-Gp130) were incubated with cancer cells. PS-scramble MYC (PS-SC-MYC) was used as a control for PS-MYC. The peptide uptake was visualized by confocal microscopy and quantified by flow cytometry. Data are representative of 3 independent experiments (n = 3). (B) Upper panel: The binding of PS-Gp130 and STAT3 was examined by immunoprecipitation and Western blotting. PO-Gp130 was used as a control. For 4 hours prior to harvest, 1 μM of peptide was incubated with cells. Lower panel: PS-Gp130 inhibits IL-6–induced phosphorylation of STAT3 and p44/42 but not EGF-mediated signaling. The cells were preincubated with PS-Gp130 for 2 hours and then stimulated with 20 ng/mL of IL-6 or 30 ng/mL of EGF for 30 minutes before harvest and Western blotting. (C) Gene expression of STAT3 targets was examined by quantitative PCR after the treatment with 1 μM of PS-Gp130 with or without IL-6 stimulation as described above. Data shown are 3 independent experiments (n = 3); SD is shown. Unpaired Student’s t test; ***P < 0.005; **P < 0.01; *P < 0.05. (D) A total of 1 μM of PS-SC-MYC or PS-MYC was incubated with cells for 48 hours before the gene expression of MYC targets was examined by quantitative PCR. […]

[4] = biological target: STAT3 (Homo sapiens, UniProt P40763); assay: Binding of PS-Gp130 and STAT3, immunoprecipitation and Western blotting; parameters: endogenous in cells; conditions: 1 μM, 4 hours prior to harvest
Chain of STAT3 (P40763 whole entry, species assumed): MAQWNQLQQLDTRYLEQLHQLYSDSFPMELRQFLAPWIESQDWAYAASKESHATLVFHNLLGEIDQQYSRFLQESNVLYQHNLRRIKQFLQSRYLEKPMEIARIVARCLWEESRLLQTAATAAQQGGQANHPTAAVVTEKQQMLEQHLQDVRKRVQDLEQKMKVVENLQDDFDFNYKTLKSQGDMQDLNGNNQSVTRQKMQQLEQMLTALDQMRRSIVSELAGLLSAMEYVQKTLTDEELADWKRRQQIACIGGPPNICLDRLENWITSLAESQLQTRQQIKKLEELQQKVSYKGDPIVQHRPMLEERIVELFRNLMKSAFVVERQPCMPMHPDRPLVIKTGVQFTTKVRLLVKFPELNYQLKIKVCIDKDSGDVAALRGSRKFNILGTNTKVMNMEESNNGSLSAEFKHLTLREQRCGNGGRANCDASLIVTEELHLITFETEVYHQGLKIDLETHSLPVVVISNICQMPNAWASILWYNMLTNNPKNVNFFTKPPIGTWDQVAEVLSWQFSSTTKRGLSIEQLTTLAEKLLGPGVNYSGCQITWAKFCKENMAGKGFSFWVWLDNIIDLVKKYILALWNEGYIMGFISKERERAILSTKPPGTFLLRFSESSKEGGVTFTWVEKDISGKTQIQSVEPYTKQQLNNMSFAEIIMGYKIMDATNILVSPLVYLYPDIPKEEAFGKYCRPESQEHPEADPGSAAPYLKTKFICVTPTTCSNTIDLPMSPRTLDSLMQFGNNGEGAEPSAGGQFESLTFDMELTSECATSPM
Experimental: as §1, with “The cells were preincubated with PS-Gp130 for 2 hours and then stimulated with 20 ng/mL of IL-6 or 30 ng/mL of EGF for 30 minutes before harvest and Western blotting.” left out, “Data shown are 3 independent experiments (n = 3); SD is shown. Unpaired Student’s t test; ***P < 0.005; **P < 0.01; *P < 0.05.” left out
Whole cell lysates or tissue homogenates were prepared by using RIPA lysis buffer (50 mM Tris at pH 7.4, 150 mM NaCl, 1 mM EDTA, 0.5% NP-40, 1 mM NaF, 15% glycerol, and 20 mM β-glycerophosphate). […] Protein amounts were determined by BCA using a Thermo Fisher Scientific kit. […]

[5] = system: IL-6–induced STAT3 phosphorylation; assay: IL-6–induced STAT3 phosphorylation, Western blotting; assay type: cell-based; conditions: preincubated 2 hours, 20 ng/mL IL-6 for 30 minutes
Experimental: as §1

[6] = system: EGF-mediated ERK phosphorylation; assay: EGF-mediated ERK phosphorylation, Western blotting; assay type: cell-based; conditions: preincubated 2 hours, 30 ng/mL EGF for 30 minutes
Experimental: as §1

Substance	interferon-γ (IFN-γ) and IL-2 production by CD8+ T cells [1]	IL-6–induced STAT3 activation (pY705 phosphorylation) in CD8+ T cells [2]	intracellular localisation / retention of peptide [3]	binding to STAT3 [4]	IL-6–induced STAT3 phosphorylation [5]	EGF-mediated ERK phosphorylation [6]
PDIPKEEAFGK685(Ac)YCRPESQEHPC-linker-T*C*C*A*T*G*A*G*C*T*T*C*C*T*G*A*T*G*C*T [PS-acet.-STAT3 peptide]	induced	downregulated	–	–	–	–
PS-Gp130: PS-conjugated Gp130 peptide (amino acids 901–910) with phospho-Tyr905 (MPKS[pY]LPQTV; also: phosphorothioate oligonucleotide conjugate; UniProt P40189 901-910, looked up, fragment)	–	–	detected in the cytoplasm or associated with the membrane	strongly bound	selectively inhibited	not
